The values below are quoted from earlier work in patent US4130647A, “Methods for treating congestive heart failure and ischemic heart disease” (priority 1977, dated 1978).

The series concerns patients with congestive heart failure. The note with it: cited from earlier work.

In the case of `NNc1nncc2ccccc12` [hydralazine], the “left ventricular filling pressures” value (heart failure) is reported as “does not usually lower left ventricular filling pressures”. For the same molecule, where the note is “in vivo”, the side effects result was “serologic side effects and leading to sodium retention”. Besides, where the note is “left ventricular failure”, the Pulmonary Wedge Pressure result is recorded as “only slightly reduces pulmonary wedge pressure”; the “right atrial pressure and forearm veins” value is “does not reduce right atrial pressure or dilate forearm veins”.
With `O=[N+]([O-])OCC(CO[N+](=O)[O-])O[N+](=O)[O-]` [nitroglycerin], the cardiac output entry (when left ventricular filling pressures fall below the upper limits of normal) is “A similar phenomenon is observed”.
